Test results: patent US11981661B2, “Heterocyclic compounds” (Hoffmann-La Roche Inc., priority 2020, dated 2024)

The compounds below were run against T1, MAGL (Homo sapiens, UniProt Q99685) (assay: 2-AG assay (MAGL inhibitory activity, hydrolysis of 2-arachidonoylglycerol followed by mass spectrometry)). Conditions: 50 pM MAGL, 8 μM 2-arachidonoylglycerol, 15 min preincubation, 30 min incubation at RT, concentration range 12.5 μM to 0.8 pM.
T1 sequence (Q99685 1-303): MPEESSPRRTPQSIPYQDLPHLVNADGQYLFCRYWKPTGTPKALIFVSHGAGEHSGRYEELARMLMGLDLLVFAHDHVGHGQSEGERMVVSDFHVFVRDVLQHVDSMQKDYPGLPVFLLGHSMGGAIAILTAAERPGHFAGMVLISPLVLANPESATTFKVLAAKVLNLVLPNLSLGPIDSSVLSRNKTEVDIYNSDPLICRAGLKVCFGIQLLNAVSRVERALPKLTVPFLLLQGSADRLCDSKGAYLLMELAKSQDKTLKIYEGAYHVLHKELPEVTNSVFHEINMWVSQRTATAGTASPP
Format: biochemical
Procedure, shortened: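 Activity derived from the arachidonic acid/d8-arachidonic acid MS intensity ratio after acetonitrile quench. Reaction: 8 μM 2-AG substrate with 50 pM MAGL, 30 min at RT, following 15 min RT compound preincubation; buffer 50 mM TRIS, 1 mM EDTA, 0.01% Tween; final compound range 12.5 μM to 0.8 pM.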

Compound | IC50 [nM]
O=C1CC[C@H](COC(=O)N2CC(OCc3ccc(C(F)(F)F)cc3F)C2)N1 [Example 53, [(2R)-5-Oxopyrrolidin-2-yl]methyl 3-[[2-fluoro-4-(trifluoromethyl)phenyl]methoxy] azetidine-1-carboxylate] | 907
CS(=O)(=O)c1cc(C2CN(C(=O)CC[C@@H]3COC(=O)N3)C2)ccc1-c1ccc(Cl)cc1F [Example 120, (4R)-4-[3-[3-[4-(4-Chloro-2-fluoro-phenyl)-3-methylsulfonyl-phenyl]azetidin-1-yl]-3-oxo-propyl]oxazolidin-2-one] | 19
CC(C[C@@H]1COC(=O)N1)C(=O)N1CC(OCc2ccc(C(F)(F)F)cc2F)C1 (stereo partly drawn) [Example 35, (4R)-4-[3-[3-[[2-Fluoro-4-(trifluoromethyl)phenyl]methoxy]azetidin-1-yl]-2-methyl-3-oxo-propyl]oxazolidin-2-one] | 13
O=C1NC(CCC(=O)N2CC(c3cnc(N4CCC(C(F)(F)F)C4)nc3)C2)CO1 (single isomer, unassigned) [Example 209, (+)- or (−)-(4R)-4-[3-Oxo-3-[3-[2-[3-(trifluoromethyl)pyrrolidin-1-yl]pyrimidin-5-yl]azetidin-1-yl]propyl]oxazolidin-2-one] | 131
CN(CCc1cnn[nH]1)C(=O)N1CC(c2ccc(C3(C(F)(F)F)CC3)cc2)C1 [Example 65, N-Methyl-N-[2-(1H-triazol-5-yl)ethyl]-3-[4-[1-(trifluoromethyl)cyclopropyl]phenyl] azetidine-1-carboxamide] | 2
COc1ccc(N(C)c2ccc(C3CN(C(=O)CC[C@@H]4COC(=O)N4)C3)cn2)nc1 [Example 92, (4R)-4-[3-[3-[6-[(5-Methoxy-2-pyridyl)-methyl-amino]-3-pyridyl]azetidin-1-yl]-3-oxo-propyl]oxazolidin-2-one] | 293
O=C1N[C@H](CCC(=O)N2CC3(CCN(Cc4ccc(C(F)(F)F)nc4)CC3)C2)CO1 [Example 196, (4R)-4-[3-Oxo-3-[7-[[6-(trifluoro-methyl)-3-pyridyl]methyl]-2,7-diazaspiro [3.5]nonan-2-yl]propyl] oxazolidin-2-one] | 507
CC(C)(O)C1CN(c2ccc(C3CN(C(=O)CC[C@@H]4COC(=O)N4)C3)cn2)C1 [Example 170, (4R)-4-[3-[3-[6-[3-(1-Hydroxy-1-methyl-ethyl)azetidin-1-yl]-3-pyridyl]azetidin-1-yl]-3-oxo-propyl]oxazolidin-2-one] | 329
O=C(C(F)CCc1cnn[nH]1)N1CC(c2ccc(C3(C(F)(F)F)CC3)cc2)C1 (stereo not shown) [Example 70, 2-Fluoro-4-(1H-triazol-5-yl)-1-[3-[4-[1-(trifluoromethyl)cyclopropyl]phenyl]azetidin-1-yl]butan-1-one] | 62
O=C1N[C@@H](COC(=O)N2CC(OCc3ccc(C(F)(F)F)cc3F)C2)CO1 [Example 55, [(4R)-2-Oxooxazolidin-4-yl]methyl 3-[[2-fluoro-4-(trifluoromethyl)phenyl]methoxy] azetidine-1-carboxylate] | 33
O=C1N[C@H](CCC(=O)N2CC(c3ccc(N4CC5(C4)CC(F)(F)C5)nc3)C2)CO1 [Example 141, (4R)-4-[3-[3-[6-(6,6-Difluoro-2-azaspiro[3.3]heptan-2-yl)-3-pyridyl]azetidin-1-yl]-3-oxo-propyl]oxazolidin-2-one] | 78
O=C1N[C@H](COC(=O)N2CC(c3ccc(Oc4ccccc4Cl)nc3)C2)CO1 [Example 60, [(4S)-2-Oxooxazolidin-4-yl]methyl 3-[6-(2-chlorophenoxy)-3-pyridyl]azetidine-1-carboxylate] | 33
CS(=O)(=O)c1ccc(-c2ccc(C3CN(C(=O)CC[C@@H]4COC(=O)N4)C3)nc2)c(Cl)c1 [Example 108, (4R)-4-[3-[3-[5-(2-Chloro-4-methylsulfonyl-phenyl)-2-pyridyl]azetidin-1-yl]-3-oxo-propyl]oxazolidin-2-one] | 7
